According to ChEMBL document CHEMBL1201862, “PubChem BioAssay data set” (2004):
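Each compound was tested at five concentrations against cells in 96-well plates for 48 hours. GI50 marks 50% less growth.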 Activity calls are given as the source filed them. Rule as the data show it: active = GI50 up to about 1.1 µM and inactive = higher.

Assays:
Experiment in all cases: growth of human tumour cells (NCI), 48 h
[1] = tested on: NCI/ADR-RES
[2] = tested on: NCI-H460
[3] = tested on: KM12
[4] = tested on: DLD-1
[5] = tested on: NCI-H522
[6] = tested on: DMS-273
[7] = tested on: HOP-62
[8] = tested on: SK-MEL-5
[9] = tested on: Malme-3M
[10] = tested on: OVCAR-5
[11] = tested on: NCI-H23
[12] = tested on: XF498
[13] = tested on: RXF 393
[14] = tested on: U-251
[15] = tested on: SF-539
[16] = tested on: UO-31
[17] = tested on: NCI-H226
[18] = tested on: EKVX
[19] = tested on: HCT-15
[20] = tested on: OVCAR-4
[21] = tested on: HOP-18
[22] = tested on: SNB-75
[23] = tested on: LOX IMVI
[24] = tested on: COLO 205
[25] = tested on: SK-OV-3
[26] = tested on: OVCAR-8
[27] = tested on: SNB-78
[28] = tested on: SW-620
[29] = tested on: OVCAR-3
[30] = tested on: HL-60
[31] = tested on: M19-MEL
[32] = tested on: IGROV-1
[33] = tested on: SN12C
[34] = tested on: HOP-92
[35] = tested on: HCT-116
[36] = tested on: DMS-114
[37] = tested on: A549
[38] = tested on: HT-29
[39] = tested on: UACC-62
[40] = tested on: MCF7
[41] = tested on: HCC 2998
[42] = tested on: UACC-257
[43] = tested on: MOLT-4
[44] = tested on: SK-MEL-28
[45] = tested on: CCRF-CEM
[46] = tested on: K562
[47] = tested on: SK-MEL-2
[48] = tested on: SF-295
[49] = tested on: SF-268
[50] = tested on: A498
[51] = tested on: 786-0
[52] = tested on: RPMI-8226
[53] = tested on: ACHN
[54] = tested on: SR
[55] = tested on: TK-10
[56] = tested on: LXFL 529
[57] = tested on: KM-20L2
[58] = tested on: SNB-19
[59] = tested on: M14

Measured: GI50

Nc1ccc2cc(S(=O)(=O)O)cc(O)c2c1/N=N/c1ccc(NC(=O)Nc2ccc(/N=N/c3c(N)ccc4cc(S(=O)(=O)O)cc(O)c34)c(S(=O)(=O)O)c2)cc1S(=O)(=O)O
> 91.2 µM: [19]
inactive: [1] > 100 µM | [2] > 100 µM | [3] > 100 µM | [4] > 100 µM | [5] > 100 µM | [6] > 100 µM | [7] > 100 µM | [8] > 100 µM | [9] > 100 µM | [10] > 79.6 µM | [11] > 100 µM | [12] > 100 µM | [13] > 100 µM | [14] > 100 µM | [15] > 100 µM | [16] > 100 µM | [17] > 100 µM | [18] > 100 µM | [20] > 84.1 µM | [21] > 100 µM | [22] 95.9 µM | [23] > 100 µM | [24] > 100 µM | [25] > 100 µM | [26] > 100 µM | [27] 97.7 µM | [28] > 100 µM | [29] > 100 µM | [30] 44.4 µM | [31] > 100 µM | [32] > 100 µM | [33] > 100 µM | [34] > 54.8 µM | [35] > 100 µM | [36] 98.6 µM | [37] > 100 µM | [38] > 100 µM | [39] > 100 µM | [40] > 100 µM | [41] > 100 µM | [42] > 100 µM | [43] > 100 µM | [44] > 100 µM | [45] > 69.3 µM | [46] > 100 µM | [47] > 100 µM | [48] > 100 µM | [49] > 100 µM | [50] > 100 µM

COc1cc2ccnc3c2c(c1OC)CC1CC(O)C(OC)CC31 (centres undefined)
inactive: [2] 35.6 µM | [3] 40.9 µM | [4] 95.3 µM | [5] 60.1 µM | [6] 34 µM | [7] 26.6 µM | [8] 38.4 µM | [9] > 100 µM | [10] 37.5 µM | [11] 47.5 µM | [12] 44.7 µM | [14] 38 µM | [15] 24.4 µM | [51] 33.5 µM | [16] 20.9 µM | [17] 96.4 µM | [18] 22.8 µM | [20] > 100 µM | [21] 21.8 µM | [22] > 100 µM | [23] 31.7 µM | [24] 43.2 µM | [25] > 100 µM | [52] 38.3 µM | [53] 44.4 µM | [26] 53.8 µM | [27] > 100 µM | [28] 33.7 µM | [29] 82.2 µM | [30] 28.6 µM | [31] 96.2 µM | [54] 32 µM | [55] 53.8 µM | [32] 66.4 µM | [33] 41.4 µM | [34] 14.7 µM | [56] 36.6 µM | [35] 38.7 µM | [36] 44.5 µM | [37] 61.8 µM | [38] 46.5 µM | [57] 43.2 µM | [39] 38.5 µM | [41] 42.7 µM | [42] 37.1 µM | [43] 33.3 µM | [44] 22.7 µM | [45] 78.3 µM | [46] 47.2 µM | [47] > 100 µM | [48] 36.6 µM | [58] 99.3 µM | [59] 51.8 µM
63.8 µM: [19]
